# Laboratory results taken from US20230135635A1, “INHIBITORS OF ULK1/2 AND METHODS OF USING SAME” (SALK INSTITUTE FOR BIOLOGICAL STUDIES, priority 2020, published 2023).
# Target: T1, recombinant human ULK1 protein (1-649) (Homo sapiens, UniProt O75385)
# T1 construct: recombinant human ULK1 protein (1-649, SignalChem #U01-11G); purchased SignalChem U01-11G
# T1 sequence (O75385 1-649): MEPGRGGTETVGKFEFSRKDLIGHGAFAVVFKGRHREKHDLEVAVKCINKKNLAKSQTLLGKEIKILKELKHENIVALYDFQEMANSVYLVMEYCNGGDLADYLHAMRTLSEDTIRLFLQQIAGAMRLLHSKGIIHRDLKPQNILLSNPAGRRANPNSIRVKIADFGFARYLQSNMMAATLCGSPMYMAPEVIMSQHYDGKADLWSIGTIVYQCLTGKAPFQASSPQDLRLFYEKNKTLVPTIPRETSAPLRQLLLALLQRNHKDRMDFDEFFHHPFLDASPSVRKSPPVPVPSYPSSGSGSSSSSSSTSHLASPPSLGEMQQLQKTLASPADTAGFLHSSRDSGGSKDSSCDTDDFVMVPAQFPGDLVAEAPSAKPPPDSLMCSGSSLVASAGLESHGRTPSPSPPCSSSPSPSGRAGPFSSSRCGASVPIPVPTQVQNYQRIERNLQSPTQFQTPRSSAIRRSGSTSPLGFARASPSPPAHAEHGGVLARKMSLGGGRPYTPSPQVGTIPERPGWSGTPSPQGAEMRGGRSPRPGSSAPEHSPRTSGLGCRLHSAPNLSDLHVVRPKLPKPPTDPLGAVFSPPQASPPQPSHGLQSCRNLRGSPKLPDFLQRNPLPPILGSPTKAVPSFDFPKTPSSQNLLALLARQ
# Test: ULK1 inhibition assay (ADP Glo)
# Format: biochemical
# In short: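 Recombinant ULK1 (2 ug/mL) phosphorylated myelin basic protein (80 ug/mL) at 25 uM ATP; ADP formed was detected by ADP-Glo after 1 h. Compounds ran in triplicate, 16-dose 3-fold serial dilution from 30 uM, to give IC50.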
# [1] = Table 1, 25 uM ATP, MBP substrate, one hour
IC50 [1] [nM],Structure (SMILES),also measured
> 10,"CNC(=O)c1ccccc1Nc1nc(Nc2ccc3c(c2)CN(S(N)(=O)=O)CC3)ncc1Br [Compound A161, 2-[5-Bromo-2-(2-sulfamoyl-1,2,3,4-tetrahydro-isoquinolin-7-ylamino)-pyrimidin-4-ylamino]-N-methyl-benzamide]",–
> 10,"CNC(=O)c1ccccc1Nc1nc(Nc2ccc3c(c2)CN(C(=O)N2CCN(C)CC2)CC3)ncc1Br [Compound A150, 2-{5-Bromo-2-[2-(4-methyl-piperazine-1-carbonyl)-1,2,3,4-tetrahydro-isoquinolin-7-ylamino]-pyrimidin-4-ylamino}-N-methyl-benzamide]",–

# More lines, now with the values behind:
Structure (SMILES),IC50 [1] [nM],also measured
"CNC(=O)c1ccccc1Oc1nc(Nc2ccc3c(c2)CCN(CCOC)C3)ncc1Br [Compound A125, 2-((5-Bromo-2-((2-(2-methoxyethyl)-1,2,3,4-tetrahydroisoquinolin-6-yl)amino)pyrimidin-4-yl)oxy)-N-methylbenzamide]",> 10,–
COc1cc(Nc2ncc(Br)c(Nc3ccccc3COC(C)=O)n2)cc(OC)c1OC [Compound C17],–,IC50 (Table 3): 5 to 100 nM
FC(F)(F)c1cnc(Nc2ccc3c(c2)CCN(Cc2ccc[nH]2)C3)nc1NC1CC1 [Compound A93],1 to 10,–
OCCN(CCO)c1ccc(Nc2ncc(Br)c(Nc3ccccc3CO)n2)cc1 [Compound C16],–,IC50 (Table 3): < 5 nM
COc1cc(Nc2ncc(Br)c(Oc3ccccc3CO)n2)cc(OC)c1OC [Compound C1],–,IC50 (Table 3): > 100 nM
"CNC(=O)c1ccccc1Nc1nc(Nc2ccc3c(c2)CCN(CC(C)O)C3)ncc1Br (centres unmarked) [Compound A138, 2-{5-Bromo-2-[2-(2-hydroxy-propyl)-1,2,3,4-tetrahydro-isoquinolin-6-ylamino]-pyrimidin-4-ylamino}-N-methyl-benzamide]",> 10,–
FC(F)(F)c1cnc(Nc2ccc3c(c2)CCN(Cc2ccncc2)C3)nc1NC1CC1 [Compound A3],< 1,–
FC(F)(F)c1cnc(Nc2ccc3c(c2)CN(Cc2c[nH]cn2)CC3)nc1NC1CC1 [Compound A105],1 to 10,–
COc1cc(Nc2nccc(Nc3ccccc3CN)n2)cc(OC)c1OC [Compound C13],–,IC50 (Table 3): > 100 nM
CSCCN1CCc2ccc(Nc3ncc(C(F)(F)F)c(NC4CC4)n3)cc2C1 [Compound A81],< 1,–
COC(=O)c1ccccc1Oc1nc(Nc2cccc(C(F)(F)F)c2)ncc1Br [Compound B28],–,IC50 (Table 2): > 1000 nM
OCc1ccccc1Nc1nc(Nc2ccccc2)ncc1Br [Compound C4],–,IC50 (Table 3): > 100 nM
"CNC(=O)c1ccccc1Nc1nc(Nc2ccc3c(c2)CN(CCOC)CC3)ncc1Br [Compound A149, 2-{5-Bromo-2-[2-(2-methoxy-ethyl)-1,2,3,4-tetrahydro-isoquinolin-7-ylamino]-pyrimidin-4-ylamino}-N-methyl-benzamide]",> 10,–
COC(=O)c1ccccc1Oc1nc(Nc2ccc(OC)cc2)ncc1Br [Compound B19],–,IC50 (Table 2): > 1000 nM
COC(=O)c1ccccc1Oc1ncnc(Nc2cc(OC)c(OC)c(OC)c2)n1 [Compound B48],–,IC50 (Table 2): > 1000 nM
